Experimental findings from US20260242440A1, “NOVEL MEANS TO MODULATE NMDA RECEPTOR-MEDIATED TOXICITY” (FUNDAMENTAL PHARMA GMBH, priority 2018, published 2026) are described below.

This experiment concerns middle cerebral artery occlusion (MCAO) mouse stroke model. Kind of experiment: middle cerebral artery occlusion (MCAO) mouse stroke model, infarct volume. In kind it is in vivo. Conditions: rAAV delivered stereotactically to mouse cortex 3 weeks before MCAO; quantified 7 days post-injury; vs PBS control. From the text:
Given the robust protective effect of SEQ ID NO:5 in cultured neurons, the inventors next analysed its neuroprotective potential in vivo using the middle cerebral artery occlusion (MCAO) mouse stroke model.
Stereotactic intracerebral injection to the cortex of mice: C57BL/6N male mice (8 weeks±5 days old) weighing 25±1 g were randomly grouped and anaesthetized with a mixture of Sedin©, Midazolam and Fentanyl®-Janssen and placed on a rodent stereotactic frame on a heat pad temperature controlled by a ATC1000 DC rectal thermometer (World Precision Instruments, Berlin). rAAV-SEQ ID NO:5) was infused into the left cortex (coordinates relative to Bregma: first site: AP 0.2 mm; ML 2.0; DV −2.0; second site: AP 0.2; ML 2.0; DV −1.8; third site: AP 0.2; ML 3.0; DV −4.0; forth site: AP 0.2; ML 3.0; DV −3.5.) using a Ultra Micro Pump III (World Precision Instruments, Berlin) to drive a 10 μl Nanofil syringe (World Precision Instruments, Berlin). […]
MCAO: Middle cerebral artery occlusion (MCAO) induced a permanent distal occlusion of the middle cerebral artery (MCA). […] The silver stained sections were scanned at 1200 dpi and infarct area was measured by using ImageJ software (NIH Image). Surgery was performed and ischemic damage was measured by an investigator who had no knowledge of the treatment group, rAAV or recombinant protein was applied by stereotactic injection or intranasal delivery.

“Also recorded” adds a separate entry of the source.

Turning to “SEQ ID NO:5: polypeptide, amino acid residues 633-689 of mouse TRPM4 (NSEERAARLLLRRCPLWGEATCLQLAMQADARAFFAQDGVQSLLTQKWWGEMDSTTP; listed as Mus musculus)”, the infarct volume entry was “significantly smaller; also recorded: effectively reduced the infarct volumes”.
